# Assays:
# Format in all cases: cell-based
# [1] = system: MGC-803 gastric cancer cell line; experiment: CCK-8 proliferation inhibition; details: for inhibition at 30 µM: MGC-803, 72 h; for inhibition at 30 µM / Inhibition of proliferation, Gastric cancer MGC-803: concentration of 30 μM; for Inhibition of proliferation, Gastric cancer MGC-803: 72 hours, 30 µM
# Outline: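 Growth inhibition measured by CCK-8 read-out after 72 h continuous compound treatment, 1‰ DMSO vehicle as control. Cells plated 2000/well the night before at 37 °C, 5% CO2; medium was 1640 for Jurkat and MGC-803, F12 for PC3, DMEM high glucose for MCF-7, each with 10% newborn bovine serum.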
# [2] = system: A549 lung cancer cell line; experiment: CCK-8 proliferation inhibition; details: for inhibition at 30 µM: A549, 72 h; for inhibition at 30 µM / Inhibition of proliferation, Lung cancer A549: concentration of 30 μM; for Inhibition of proliferation, Lung cancer A549: 72 hours, 30 µM
# Outline: (§1)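 Plating at 2000 cells/well, then incubation overnight at 37° C. Next, a range of compound concentrations for 72 hours (control 1‰ DMSO). Finally, medium decanted and CCK-8 diluted 1:10 added.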
# [3] = system: BEL-7402 liver cancer cell line; experiment: CCK-8 proliferation inhibition; details: for Inhibition of proliferation, Liver cancer BEL-7402: concentration of 30 μM, 72 hours, 30 µM
# Outline: as §1
# [4] = MIC in vitro anti-bacterial experiments, Gram-positive bacteria; details: lowest MIC reached; read-out: minimum inhibitory concentration against Gram-positive bacteria
# Source text: 1. The invention adopts the two-fold agar dilution method recommended by the operating procedure of antimicrobial susceptibility testing set by American Clinical and Laboratory Standards Institute (CLSI) to determine the Minimum Inhibitory Concentration (MIC) of the test samples against the tested strains.
# [5] = system: HCT-116 colorectal cancer cell line; experiment: CCK-8 proliferation inhibition; details: 72 hours, CCK-8; for HCT116 inhibition rate/%: concentration of 30 μM, 30 µM
# Outline: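 Viability read-out: 1:10 diluted CCK-8 after 72 h compound exposure at 37 °C, 5% CO2. Cells (2000/well, McCoy's 5A plus 10% newborn bovine serum) pre-cultured overnight; vehicle control 1‰ DMSO.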
# [6] = system: methicillin-resistant Staphylococcus epidermidis (MRSE); experiment: MIC, two-fold agar dilution (CLSI), clinical isolates; details: for Anti-bacterial activity (MIC), strain MRSE 15-1: clinical isolate MRSE 15-1; for Anti-bacterial activity (MIC), strain MRSE 15-2: clinical isolate MRSE 15-2; for Anti-bacterial activity (MIC), strain MRSE 15-3: clinical isolate MRSE 15-3; for Anti-bacterial activity (MIC), strain MRSE 15-7: clinical isolate MRSE 15-7
# Outline: (§2)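 MIC values come from two-fold agar dilution run per CLSI antimicrobial susceptibility testing procedure.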
# [7] = system: methicillin-resistant Staphylococcus aureus (MRSA); experiment: as above; details: for Anti-bacterial activity (MIC), strain MRSA 15-1: clinical isolate MRSA 15-1; for Anti-bacterial activity (MIC), strain MRSA 15-2: clinical isolate MRSA 15-2; for Anti-bacterial activity (MIC), strain MRSA 15-3: clinical isolate MRSA 15-3; for Anti-bacterial activity (MIC), strain MRSA 15-4: clinical isolate MRSA 15-4
# Outline: as §2
# [8] = system: Enterococcus faecium (EFM); experiment: as above
# Outline: as §2
# [9] = system: methicillin-sensitive Staphylococcus epidermidis (MSSE); experiment: as above; details: for Anti-bacterial activity (MIC), strain MSSE 15-3: clinical isolate MSSE 15-3; for Anti-bacterial activity (MIC), strain MSSE 15-4: clinical isolate MSSE 15-4; for Anti-bacterial activity (MIC), strain MSSE 15-5: clinical isolate MSSE 15-5; for Anti-bacterial activity (MIC), strain MSSE 15-6: clinical isolate MSSE 15-6
# Outline: as §2
# [10] = system: methicillin-sensitive Staphylococcus aureus (MSSA); experiment: as above; details: for Anti-bacterial activity (MIC), strain MSSA 15-3: clinical isolate MSSA 15-3; for Anti-bacterial activity (MIC), strain MSSA 15-4: clinical isolate MSSA 15-4; for Anti-bacterial activity (MIC), strain MSSA 15-5: clinical isolate MSSA 15-5; for Anti-bacterial activity (MIC), strain MSSA 15-6: clinical isolate MSSA 15-6
# Outline: as §2
# [11] = system: Moraxella catarrhalis (BCA); experiment: as above
# Outline: as §2
# [12] = system: Escherichia coli (including ESBLs, non-ESBLs); experiment: as above; details: for Anti-bacterial activity (MIC), strain ECO+ 15-1: clinical isolate ECO+ 15-1; for Anti-bacterial activity (MIC), strain ECO+ 15-2: clinical isolate ECO+ 15-2; for Anti-bacterial activity (MIC), strain ECO+ 15-3: clinical isolate ECO+ 15-3; for Anti-bacterial activity (MIC), strain ECO+ 15-4: clinical isolate ECO+ 15-4; for Anti-bacterial activity (MIC), strain ECO− 15-1: clinical isolate ECO− 15-1; for Anti-bacterial activity (MIC), strain ECO− 15-2: clinical isolate ECO− 15-2; for Anti-bacterial activity (MIC), strain ECO− 15-3: clinical isolate ECO− 15-3; for Anti-bacterial activity (MIC), strain ECO− 15-4: clinical isolate ECO− 15-4
# Outline: as §2
# [13] = system: Streptococcus pneoumoniae (SPN); experiment: as above
# Outline: as §2
# [14] = system: Enterococcus faecalis (EFA); experiment: as above
# Outline: as §2
smiles,measurement,setting,value
"O=C(C[C@@H](CC1CCCC1)C(=O)N1CC2(CC2)C[C@H]1C(=O)Nc1nccs1)NO [Example 72, (S)-5-((R)-2-(cyclopentylmethyl)-4-(hydroxyamino)-4-oxobutanoyl)-N-(thiazol-2-yl)-5-azaspiro[2.4]heptane-6-carboxamide]",inhibition at 30 µM,[1]; Homo sapiens,> 50%
same,"Inhibition of proliferation, Gastric cancer MGC-803",[1],63%
same,inhibition at 30 µM,[2]; Homo sapiens,> 50%
same,"Inhibition of proliferation, Lung cancer A549",[2],50%
same,"Inhibition of proliferation, Liver cancer BEL-7402",[3],76%
same,MIC,[4],< 0.008 µg/mL
same,HCT116 inhibition rate/%,[5],75%
same,"Anti-bacterial activity (MIC), strain MRSE 15-1",[6],0.03 µg/mL
same,"Anti-bacterial activity (MIC), strain MRSE 15-2",[6],0.125 µg/mL
same,"Anti-bacterial activity (MIC), strain MRSE 15-3",[6],0.125 µg/mL
same,"Anti-bacterial activity (MIC), strain MRSE 15-7",[6],0.125 µg/mL
same,"Anti-bacterial activity (MIC), strain MRSA 15-1",[7],0.06 µg/mL
same,"Anti-bacterial activity (MIC), strain MRSA 15-2",[7],0.125 µg/mL
same,"Anti-bacterial activity (MIC), strain MRSA 15-3",[7],0.06 µg/mL
same,"Anti-bacterial activity (MIC), strain MRSA 15-4",[7],0.125 µg/mL
same,Anti-bacterial activity (MIC),[8]; strain EFM 15-1,32 µg/mL
same,Anti-bacterial activity (MIC),[8]; strain EFM 15-2,32 µg/mL
same,Anti-bacterial activity (MIC),[8]; strain EFM 15-3,32 µg/mL
same,Anti-bacterial activity (MIC),[8]; strain EFM 15-4,0.5 µg/mL
same,Anti-bacterial activity (MIC),[8]; strain EFM 15-5,0.125 µg/mL
same,Anti-bacterial activity (MIC),[8]; strain EFM 15-6,0.5 µg/mL
same,"Anti-bacterial activity (MIC), strain MSSE 15-3",[9],0.06 µg/mL
same,"Anti-bacterial activity (MIC), strain MSSE 15-4",[9],0.125 µg/mL
same,"Anti-bacterial activity (MIC), strain MSSE 15-5",[9],0.125 µg/mL
same,"Anti-bacterial activity (MIC), strain MSSE 15-6",[9],< 0.008 µg/mL
same,"Anti-bacterial activity (MIC), strain MSSA 15-3",[10],0.125 µg/mL
same,"Anti-bacterial activity (MIC), strain MSSA 15-4",[10],0.06 µg/mL
same,"Anti-bacterial activity (MIC), strain MSSA 15-5",[10],0.03 µg/mL
same,"Anti-bacterial activity (MIC), strain MSSA 15-6",[10],16 µg/mL
same,Anti-bacterial activity (MIC),[11]; strain BCA 14-1,0.25 µg/mL
same,Anti-bacterial activity (MIC),[11]; strain BCA 14-4,0.5 µg/mL
same,Anti-bacterial activity (MIC),[11]; strain BCA 14-5,0.125 µg/mL
same,Anti-bacterial activity (MIC),[11]; strain BCA 14-6,0.125 µg/mL
same,Anti-bacterial activity (MIC),[11]; strain BCA 14-7,0.5 µg/mL
same,Anti-bacterial activity (MIC),[11]; strain BCA 14-8,0.25 µg/mL
same,Anti-bacterial activity (MIC),[11]; strain BCA 14-10,0.125 µg/mL
same,"Anti-bacterial activity (MIC), strain ECO+ 15-1",[12],16 µg/mL
same,"Anti-bacterial activity (MIC), strain ECO+ 15-2",[12],16 µg/mL
same,"Anti-bacterial activity (MIC), strain ECO+ 15-3",[12],16 µg/mL
same,"Anti-bacterial activity (MIC), strain ECO+ 15-4",[12],16 µg/mL
same,"Anti-bacterial activity (MIC), strain ECO− 15-1",[12],16 µg/mL
same,"Anti-bacterial activity (MIC), strain ECO− 15-2",[12],16 µg/mL
same,"Anti-bacterial activity (MIC), strain ECO− 15-3",[12],16 µg/mL
same,"Anti-bacterial activity (MIC), strain ECO− 15-4",[12],16 µg/mL
same,Anti-bacterial activity (MIC),[13]; strain SPN 16-2,0.5 µg/mL
same,Anti-bacterial activity (MIC),[13]; strain SPN 16-4,0.25 µg/mL
same,Anti-bacterial activity (MIC),[14]; strain EFA 15-1,32 µg/mL
same,Anti-bacterial activity (MIC),[14]; strain EFA 15-2,32 µg/mL
same,Anti-bacterial activity (MIC),[14]; strain EFA 15-3,32 µg/mL
same,Anti-bacterial activity (MIC),[14]; strain EFA 15-4,32 µg/mL
same,Anti-bacterial activity (MIC),[14]; strain EFA 15-5,32 µg/mL
same,Anti-bacterial activity (MIC),[14]; strain EFA 15-6,32 µg/mL
same,Anti-bacterial activity (MIC),[14]; strain EFA 15-9,2 µg/mL
O=C(C[C@@H](CC1CCCC1)C(=O)N1CC2(CC2)C[C@H]1C(=O)Nc1nc(C(F)(F)F)cs1)NO [Example 73],inhibition at 30 µM,[1]; Homo sapiens,> 50%
same,IC50,"[1]; Homo sapiens, MGC-803, 72 hours",12.7 µM
same,"Inhibition of proliferation, Gastric cancer MGC-803",[1],65%
same,inhibition at 30 µM,[2]; Homo sapiens,> 50%
same,IC50,"[2]; Homo sapiens, A549, 72 hours",5.12 µM
same,"Inhibition of proliferation, Lung cancer A549",[2],63%
same,IC50,"[3]; Homo sapiens, Bel-7402, 72 hours",10 µM
same,"Inhibition of proliferation, Liver cancer BEL-7402",[3],81%
same,MIC,[4],< 0.008 µg/mL
same,IC50,"[5]; Homo sapiens, HCT-116",6.21 µM
same,HCT116 inhibition rate/%,[5],78%
same,"Anti-bacterial activity (MIC), strain MRSE 15-1",[6],< 0.008 µg/mL
same,"Anti-bacterial activity (MIC), strain MRSE 15-2",[6],0.015 µg/mL
same,"Anti-bacterial activity (MIC), strain MRSE 15-3",[6],< 0.008 µg/mL
same,"Anti-bacterial activity (MIC), strain MRSE 15-7",[6],0.06 µg/mL
same,"Anti-bacterial activity (MIC), strain MRSA 15-1",[7],0.03 µg/mL
same,"Anti-bacterial activity (MIC), strain MRSA 15-2",[7],0.06 µg/mL
same,"Anti-bacterial activity (MIC), strain MRSA 15-3",[7],0.06 µg/mL
same,"Anti-bacterial activity (MIC), strain MRSA 15-4",[7],0.06 µg/mL
same,Anti-bacterial activity (MIC),[8]; strain EFM 15-1,1 µg/mL
same,Anti-bacterial activity (MIC),[8]; strain EFM 15-2,1 µg/mL
same,Anti-bacterial activity (MIC),[8]; strain EFM 15-3,0.125 µg/mL
same,Anti-bacterial activity (MIC),[8]; strain EFM 15-4,1 µg/mL
same,Anti-bacterial activity (MIC),[8]; strain EFM 15-5,0.125 µg/mL
same,Anti-bacterial activity (MIC),[8]; strain EFM 15-6,1 µg/mL
same,"Anti-bacterial activity (MIC), strain MSSE 15-3",[9],0.015 µg/mL
same,"Anti-bacterial activity (MIC), strain MSSE 15-4",[9],< 0.008 µg/mL
same,"Anti-bacterial activity (MIC), strain MSSE 15-5",[9],< 0.008 µg/mL
same,"Anti-bacterial activity (MIC), strain MSSE 15-6",[9],< 0.008 µg/mL
same,"Anti-bacterial activity (MIC), strain MSSA 15-3",[10],0.06 µg/mL
same,"Anti-bacterial activity (MIC), strain MSSA 15-4",[10],0.06 µg/mL
same,"Anti-bacterial activity (MIC), strain MSSA 15-5",[10],0.03 µg/mL
same,"Anti-bacterial activity (MIC), strain MSSA 15-6",[10],0.06 µg/mL
same,Anti-bacterial activity (MIC),[11]; strain BCA 14-1,1 µg/mL
same,Anti-bacterial activity (MIC),[11]; strain BCA 14-4,1 µg/mL
same,Anti-bacterial activity (MIC),[11]; strain BCA 14-5,0.25 µg/mL
same,Anti-bacterial activity (MIC),[11]; strain BCA 14-6,1 µg/mL
same,Anti-bacterial activity (MIC),[11]; strain BCA 14-7,0.125 µg/mL
same,Anti-bacterial activity (MIC),[11]; strain BCA 14-8,0.25 µg/mL
same,Anti-bacterial activity (MIC),[11]; strain BCA 14-10,0.125 µg/mL
same,"Anti-bacterial activity (MIC), strain ECO+ 15-1",[12],16 µg/mL
same,"Anti-bacterial activity (MIC), strain ECO+ 15-2",[12],32 µg/mL
same,"Anti-bacterial activity (MIC), strain ECO+ 15-3",[12],32 µg/mL
same,"Anti-bacterial activity (MIC), strain ECO+ 15-4",[12],32 µg/mL
same,"Anti-bacterial activity (MIC), strain ECO− 15-1",[12],32 µg/mL
same,"Anti-bacterial activity (MIC), strain ECO− 15-2",[12],32 µg/mL
same,"Anti-bacterial activity (MIC), strain ECO− 15-3",[12],32 µg/mL
same,"Anti-bacterial activity (MIC), strain ECO− 15-4",[12],32 µg/mL
same,Anti-bacterial activity (MIC),[13]; strain SPN 16-2,1 µg/mL
same,Anti-bacterial activity (MIC),[14]; strain EFA 15-1,2 µg/mL
same,Anti-bacterial activity (MIC),[14]; strain EFA 15-2,2 µg/mL
same,Anti-bacterial activity (MIC),[14]; strain EFA 15-3,2 µg/mL
same,Anti-bacterial activity (MIC),[14]; strain EFA 15-4,2 µg/mL
same,Anti-bacterial activity (MIC),[14]; strain EFA 15-5,2 µg/mL
same,Anti-bacterial activity (MIC),[14]; strain EFA 15-6,2 µg/mL
same,Anti-bacterial activity (MIC),[14]; strain EFA 15-9,2 µg/mL
